This note sets out measurements from patent US8492310B2, “Herbicidal compositions containing benzoylpyrazole compounds” (priority 2008, dated 2013).

Common to all, as to format: in vivo
Assay [1] deals with velvetleaf (Abutilon theophrasti MEDIC.). The assay can be described thus: Foliar treatment pot test, visual growth inhibition rate, velvetleaf (AT). Particulars: Abutilon theophrasti, foliar, read-out: Growth inhibition rate (%) of AT Measured value. The source says:
(§1) When the herbicidal activity in a case where two active ingredients are combined, is larger than the simple sum of the respective herbicidal activities of the two active ingredients (the expected activity), it is called a synergistic effect. The activity expected by the combination of two active ingredients can be calculated as follows (Colby S. R., “Weed”, vol. 15, p. 20-22, 1967). E=α+β−(α×β÷100) where
(§2) Upland field soil was put into a 1/1,000,000 hectare pot, and seeds of various plants (barnyardgrass (Echinochloa crus-qalli L.), crabgrass (Digitaria sanguinalis L.), giant foxtail (Setaria faberi Herrm.), velvetleaf (Abutilon theophrasti MEDIC.) and prickly sida (Sida spinosa L.)) were sown. When the respective plants reached predetermined leaf stage, herbicidal compositions in predetermined amounts were diluted with water in an amount corresponding to 300 L/ha and applied for foliar treatment by a small sprayer.
(§3) Further, in accordance with the above Colby's formula, the growth inhibition rate (calculated value) was calculated. In Tables, with respect to the compound Q, Compound Nos. in Table 1 are described, and with respect to other herbicidal compounds, common names are described. Further, in Tables, barnyardgrass is represented by “EC”, crabgrass by “DS”, giant foxtail by “SF”, velvetleaf by “AT”, and prickly sida by “SS”.

Assay [2] deals with crabgrass (Digitaria sanguinalis L.). The experiment in a line: Foliar treatment pot test, visual growth inhibition rate, crabgrass (DS). Conditions: Digitaria sanguinalis, foliar, read-out: Growth inhibition rate (%) of DS Measured value.
Description: as §1, §2, §3

For assay [3], the system named is barnyardgrass (Echinochloa crus-qalli L.). The assay can be described thus: Foliar treatment pot test, visual growth inhibition rate, barnyardgrass (EC). Particulars: 4.0-5.0 leaf stage, read-out: Growth inhibition rate (%) of EC Measured value.
Description: as §1, §2, §3

Assay [4] concerns prickly sida (Sida spinosa L.). The experiment in a line: Foliar treatment pot test, visual growth inhibition rate, prickly sida (SS). Conditions: Sida spinosa, foliar, 3.0-3.3 leaf stage, read-out: Growth inhibition rate (%) of SS Measured value.
Description: as §1, §2, §3

Setting [5] is: 480 h, 4.2-4.3 leaf stage, 20 DAT.
Where [6] appears, read: 552 h, 3.0-4.2 leaf stage, 23 DAT.
[7] abbreviates: 480 h, 4.5-5.2 leaf stage, 20 DAT.
Where [8] appears, read: 552 h, 4.5-5.3 leaf stage, 23 DAT.
Setting [9] is: 336 h, 4.0-5.0 leaf stage, 14 DAT.
The mark [10] stands for this setting: 504 h, 4.0-5.1 leaf stage, 21 DAT.
Where [11] appears, read: 480 h, 4.0-4.2 leaf stage, 20 DAT.
[12] abbreviates: 480 h, 3.7-4.0 leaf stage, 20 DAT.

Read-outs that look alike come from different tables or passages of the source.

In general, inhibition refers to how much of the control response was suppressed.

Consider `COc1c(Cl)ccc(Cl)c1C(=O)O` [Dicamba, dicamba], for which the inhibition at 100 g/ha in assay [1] (312 h, 3.3-4.2 leaf stage, 13 DAT) is 35%; in assay [1] (setting [5]), 43%; in assay [1] (504 h, 3.5-4.3 leaf stage, 21 DAT) it was 55%; in assay [2] (312 h, 4.4-5.0 leaf stage, 13 DAT), 0%; in assay [2] (setting [7]), 0%. In addition, the inhibition at 25 g/ha stood at 25% in assay [1] (setting [5]) and 0% in assay [2] (setting [7]). Also, the inhibition at 50 g/ha in assay [1] (setting [5]) was found to be 35%; in assay [2] (setting [7]) it was 0%. For the same compound, the inhibition at 60 g/ha stood at 0% in assay [1] (setting [6]) and 55% in assay [2] (setting [8]). Moreover, the figures for the inhibition at 120 g/ha in assay [1] (setting [6]) and in assay [2] (setting [8]) were 0% and 75%, respectively. Moreover, the inhibition at 200 g/ha was determined as 0% in assay [2] (504 h, 5.0-5.5 leaf stage, 21 DAT, 200 g/ha) and 0% in assay [3] (336 h, 14 DAT, 200 g/ha).

In the case of `CCOCN(C(=O)CCl)c1c(C)cccc1CC` [Acetochlor, acetochlor], the inhibition at 100 g/ha in assay [4] (336 h, 14 DAT) is 0%. In assay [4] (336 h, 14 DAT, 200 g/ha), the inhibition at 200 g/ha amounted to 0%. The inhibition at 400 g/ha is 10% in assay [4] (336 h, 14 DAT, 400 g/ha); 0% in assay [1] (504 h, 3.0-3.8 leaf stage, 21 DAT, 400 g/ha); 0% in assay [2] (504 h, 3.5-4.3 leaf stage, 21 DAT, 400 g/ha). Further, the inhibition at 800 g/ha in assay [4] (336 h, 14 DAT, 800 g/ha) was determined as 30%. Moreover, the inhibition at 63 g/ha in assay [1] (168 h, 2.3-3.5 leaf stage, 7 DAT) is 0%; in assay [2] (168 h, 3.5-5.0 leaf stage, 7 DAT), 0%. Also, the inhibition at 125 g/ha in assay [1] (168 h, 2.3-3.5 leaf stage, 7 DAT, 125 g/ha) is 0%; in assay [2] (168 h, 3.5-5.0 leaf stage, 7 DAT, 125 g/ha), 0%. For the same compound, the inhibition at 250 g/ha in assay [1] (168 h, 2.3-3.5 leaf stage, 7 DAT, 250 g/ha) came to 0%; in assay [2] (168 h, 3.5-5.0 leaf stage, 7 DAT, 250 g/ha) it was 0%. Further, the inhibition at 500 g/ha turned out to be 10% in assay [1] (168 h, 2.3-3.5 leaf stage, 7 DAT, 500 g/ha) and 0% in assay [2] (168 h, 3.5-5.0 leaf stage, 7 DAT, 500 g/ha). Further, the inhibition at 750 g/ha stood at 0% in assay [1] (168 h, 2.3-3.5 leaf stage, 7 DAT, 750 g/ha) and 10% in assay [2] (168 h, 3.5-5.0 leaf stage, 7 DAT, 750 g/ha). In addition, the inhibition at 150 g/ha in assay [1] (336 h, 3.0-4.0 leaf stage, 14 DAT, 150 g/ha) is 0%; in assay [2] (setting [9]), 0%; in assay [2] (setting [10]), 0%. In addition, the inhibition at 300 g/ha in assay [1] (480 h, 3.1-3.4 leaf stage, 20 DAT, 300 g/ha) is 0%.

Regarding `CCCCCCCC(=O)Oc1c(Br)cc(C#N)cc1Br` [Bromoxynil-octanoate, bromoxynil-octanoate], in assay [4] (528 h, 22 DAT, 25 g/ha), the inhibition at 25 g/ha is 40%. The inhibition at 50 g/ha in assay [4] (528 h, 22 DAT, 50 g/ha) was 50%. In addition, the inhibition at 100 g/ha in assay [4] (528 h, 22 DAT) was 50%; in assay [1] (528 h, 4.0-4.3 leaf stage, 22 DAT) it was 25%. Further, the inhibition at 63 g/ha in assay [1] (504 h, 3.0-3.5 leaf stage, 21 DAT) worked out at 10%; in assay [2] (setting [9]), 0%; in assay [2] (setting [10]), 0%. The inhibition at 30 g/ha in assay [1] (552 h, 3.0-4.2 leaf stage, 23 DAT, 30 g/ha) is 0%; in assay [2] (552 h, 4.5-5.3 leaf stage, 23 DAT, 30 g/ha), 25%. The inhibition at 60 g/ha in assay [1] (setting [6]) worked out at 0%; in assay [2] (setting [8]), 10%. In addition, the results for the inhibition at 120 g/ha in assay [1] (setting [6]) and in assay [2] (setting [8]) were 0% and 45%, respectively. Moreover, the inhibition at 200 g/ha in assay [1] (576 h, 3.2-4.1 leaf stage, 24 DAT, 200 g/ha) is 100%. Further, in assay [2] (528 h, 3.1-4.0 leaf stage, 22 DAT, 77 g/ha), the inhibition at 77 g/ha came out at 0%.

Take `CS(=O)(=O)c1ccc(C(=O)C2C(=O)CCCC2=O)c([N+](=O)[O-])c1` [Mesotrione]: the inhibition at 25 g/ha in assay [1] (setting [11]) came out at 23%; in assay [1] (480 h, 4.1-4.2 leaf stage, 20 DAT) it was 94%; in assay [2] (setting [12]), 55%. Also, the inhibition at 50 g/ha in assay [1] (setting [11]) was 35%; in assay [2] (setting [12]), 83%. Besides, the inhibition at 12.5 g/ha was found to be 75% in assay [1] (480 h, 4.1-4.2 leaf stage, 20 DAT, 12.5 g/ha) and 80% in assay [2] (480 h, 5.1-5.2 leaf stage, 20 DAT, 12.5 g/ha). The inhibition at 15 g/ha in assay [1] (576 h, 3.2-4.1 leaf stage, 24 DAT, 15 g/ha) turned out to be 88%; in assay [3] (504 h, 21 DAT, 15 g/ha), 5%.
